Experiments:
BT-549 = test: NCI 60 cell line five dose, Breast Cancer
NCI-H522 = test: NCI 60 cell line five dose, Non-Small Cell Lung Cancer
SW-620 = test: NCI 60 cell line five dose, Colon Cancer
SK-MEL-2 = test: NCI 60 cell line five dose, Melanoma
A549/ATCC = test: NCI 60 cell line five dose, Non-Small Cell Lung Cancer
MALME-3M = test: NCI 60 cell line five dose, Melanoma; conditions: MALME-3M
MDA-MB-468 = test: NCI 60 cell line five dose, Breast Cancer
HCT-116 = test: NCI 60 cell line five dose, Colon Cancer
U251 = test: NCI 60 cell line five dose, CNS Cancer
MDA-MB-231/ATCC = test: NCI 60 cell line five dose, Breast Cancer
NCI-H322M [1] = test: NCI 60 cell line five dose, Non-Small Cell Lung Cancer
OVCAR-5 = test: NCI 60 cell line five dose, Ovarian Cancer
SK-MEL-5 = test: NCI 60 cell line five dose, Melanoma; conditions: SK-MEL-5
MCF7 = test: NCI 60 cell line five dose, Breast Cancer
LOX IMVI = test: NCI 60 cell line five dose, Melanoma
MDA-MB-435 = test: NCI 60 cell line five dose, Melanoma
NCI-H23 = test: NCI 60 cell line five dose, Non-Small Cell Lung Cancer
SNB-75 = test: NCI 60 cell line five dose, CNS Cancer
RPMI-8226 = test: NCI 60 cell line five dose, Leukemia
OVCAR-3 = test: NCI 60 cell line five dose, Ovarian Cancer
NCI-H322M [2] = test system: NCI-H322M
[3] = test system: panel of 60 human cancer cell lines; test: Five-dose growth inhibition, panel; format: cell-based
OVCAR-8 = test: NCI 60 cell line five dose, Ovarian Cancer

`C=C1C(=O)O[C@H]2[C@H]1CC/C(COC(=O)NCCCCCNC(=O)OC/C1=C/CC[C@@]3(C)O[C@H]3[C@H]3OC(=O)C(=C)[C@@H]3CC1)=C\CC[C@@]1(C)O[C@@H]21` [JVM 2-76, bis(((1aR,7aS,10aS,10bS,E)-1a-Methyl-8-methylene-9-oxo-1a,2,3,6,7,7a,8,9,10a,10b-decahydrooxireno[2′,3′:9,10]cyclodeca[1,2-b]furan-5-yl)methyl)pentane-1,5-diyldicarbamate] showed a GI50 (BT-549) of 1000 nM, a TGI (BT-549) of 2230 nM and a CC50 (BT-549; read-out: LC50) of 4960 nM. It also gave a GI50 (NCI-H522) of 220 nM, a TGI (NCI-H522) of 440 nM and a CC50 (NCI-H522; read-out: LC50) of 880 nM. For the same compound, the GI50 (SW-620) was 430 nM, the TGI (SW-620) was 1750 nM and the CC50 (SW-620; read-out: LC50) was 5140 nM. For the same compound, the GI50 (SK-MEL-2) was 2010 nM, the TGI (SK-MEL-2) was 3960 nM and the CC50 (SK-MEL-2; read-out: LC50) was 7810 nM. For the same compound, the GI50 (A549/ATCC) was 14900 nM, the TGI (A549/ATCC) was 32700 nM and the CC50 (A549/ATCC; read-out: LC50) was 71700 nM. It also gave a GI50 (MALME-3M) of 2060 nM, a TGI (MALME-3M) of 5240 nM and a CC50 (MALME-3M; read-out: LC50) of 27300 nM. The GI50 (MDA-MB-468) was 1060 nM, the TGI (MDA-MB-468) was 3960 nM and the CC50 (MDA-MB-468; read-out: LC50) was 24700 nM. The GI50 (HCT-116) was 540 nM, the TGI (HCT-116) was 1860 nM and the CC50 (HCT-116; read-out: LC50) was 4560 nM. It also gave a GI50 (U251) of 3510 nM, a TGI (U251) of 13700 nM and a CC50 (U251; read-out: LC50) of 51500 nM. For the same compound, the GI50 (MDA-MB-231/ATCC) was 1470 nM, the TGI (MDA-MB-231/ATCC) was 3070 nM and the CC50 (MDA-MB-231/ATCC; read-out: LC50) was 6400 nM. It also gave a GI50 (NCI-H322M [1]) of 16400 nM, a TGI (NCI-H322M [1]) of 41600 nM and a GI50 (OVCAR-5) of 1670 nM. For the same compound, the TGI (OVCAR-5) was 3530 nM, the CC50 (OVCAR-5; read-out: LC50) was 7470 nM and the GI50 (SK-MEL-5) was 3190 nM. It also gave a TGI (SK-MEL-5) of 12200 nM, a CC50 (SK-MEL-5; read-out: LC50) of 37000 nM and a GI50 (MCF7) of 390 nM. It also gave a TGI (MCF7) of 1930 nM, a CC50 (MCF7; read-out: LC50) of 6200 nM and a GI50 (LOX IMVI) of 460 nM. It also gave a TGI (LOX IMVI) of 1850 nM, a CC50 (LOX IMVI; read-out: LC50) of 5820 nM and a GI50 (MDA-MB-435) of 1510 nM. For the same compound, the TGI (MDA-MB-435) was 3320 nM, the CC50 (MDA-MB-435; read-out: LC50) was 7300 nM and the GI50 (NCI-H23) was 2660 nM. The TGI (NCI-H23) was 7710 nM, the CC50 (NCI-H23; read-out: LC50) was 45500 nM and the GI50 (SNB-75) was 2200 nM. The TGI (SNB-75) was 11400 nM, the CC50 (SNB-75; read-out: LC50) was 33800 nM and the GI50 (RPMI-8226) was 780 nM. The TGI (RPMI-8226) was 4160 nM, the CC50 (RPMI-8226; read-out: LC50) was over 100000 nM and the CC50 (M9ENL AML cell lines; read-out: LC50, M9ENL AML cell lines, after 24 hours of drug exposure) was 1350 nM. It also gave a GI50 (OVCAR-3) of 760 nM, a TGI (OVCAR-3) of 2130 nM and a CC50 (OVCAR-3; read-out: LC50) of 5070 nM. The CC50 (NCI-H322M [2]) was over 100000 nM, the “growth inhibition (GI50)” value ([3]; CCRF-CEM, HL-60 (TB), K-562, RPMI-8226, SR, NCI-H522, COLO 205, HCT-116, HT29, SW-620, LOX IMVI, OVCAR-3, RXF 393, MCF7) was “nano-molar range” and the GI50 values ([3]; remaining human cancer cell lines) was “low micromolar range”. It also gave a GI50 (OVCAR-8) of 3270 nM, a TGI (OVCAR-8) of 13700 nM and a CC50 (OVCAR-8; read-out: LC50) of 61000 nM.

In the case of `C=C1C(=O)O[C@H]2[C@H]1CC/C(COC(=O)CCC(=O)NCCCCCCCCCNC(=O)CCC(=O)OC/C1=C/CC[C@@]3(C)O[C@H]3[C@H]3OC(=O)C(=C)[C@@H]3CC1)=C\CC[C@@]1(C)O[C@@H]21` [JVM 2-92, bis(((1aR,7aS,10aS,10bS,E)-1a-Methyl-8-methylene-9-oxo-1a,2,3,6,7,7a,8,9,10a,10b-decahydrooxireno[2′,3′:9,10]cyclodeca[1,2-b]furan-5-yl)methyl)4,4′-(nonane-1,9-diylbis(azanediyl))bis (4-oxobutanoate)], the GI50 (BT-549) is reported as 660 nM, the TGI (BT-549) is reported as 2030 nM and the GI50 (NCI-H522) is reported as 420 nM. For the same compound, the TGI (NCI-H522) was 1640 nM, the GI50 (SW-620) was 540 nM and the TGI (SW-620) was 2070 nM. For the same compound, the GI50 (SK-MEL-2) was 2120 nM, the TGI (SK-MEL-2) was 4150 nM and the GI50 (A549/ATCC) was 13800 nM. For the same compound, the TGI (A549/ATCC) was 33700 nM, the GI50 (MALME-3M) was 1940 nM and the TGI (MALME-3M) was 4170 nM. It also gave a GI50 (MDA-MB-468) of 980 nM, a TGI (MDA-MB-468) of 2640 nM and a GI50 (HCT-116) of 860 nM. For the same compound, the TGI (HCT-116) was 2180 nM, the GI50 (U251) was 3010 nM and the TGI (U251) was 9250 nM. For the same compound, the GI50 (MDA-MB-231/ATCC) was 1580 nM, the TGI (MDA-MB-231/ATCC) was 4050 nM and the GI50 (NCI-H322M [1]) was 16300 nM. The TGI (NCI-H322M [1]) was 31600 nM, the GI50 (OVCAR-5) was 1700 nM and the TGI (OVCAR-5) was 3470 nM. The GI50 (SK-MEL-5) was 1880 nM, the TGI (SK-MEL-5) was 4190 nM and the GI50 (MCF7) was 420 nM. For the same compound, the TGI (MCF7) was 1850 nM, the GI50 (LOX IMVI) was 370 nM and the TGI (LOX IMVI) was 1360 nM. It also gave a GI50 (MDA-MB-435) of 1630 nM, a TGI (MDA-MB-435) of 3440 nM and a GI50 (NCI-H23) of 2230 nM. It also gave a TGI (NCI-H23) of 5130 nM, a GI50 (SNB-75) of 1470 nM and a TGI (SNB-75) of 4350 nM. The GI50 (RPMI-8226) was 500 nM, the TGI (RPMI-8226) was 3330 nM and the “result compared to parthenolide” value (M9ENL AML cell lines; 10 μM, M9ENL cell line, FIG. 4) was “promising result”. The GI50 (OVCAR-3) was 1290 nM, the TGI (OVCAR-3) was 2610 nM and the CC50 (NCI-H322M [2]) was 61300 nM. For the same compound, the growth inhibition ([3]; NCI-H522, SW-620, LOX IMVI, MCF7, BT-549, MDA-MB-468) was “nano-molar range”, the growth inhibition ([3]; all hematological leukemia cell lines) was “nanomolar range” and the GI50 (OVCAR-8) was 3240 nM. For the same compound, the TGI (OVCAR-8) was 16500 nM.
